Measurements taken from the supplement of paper PMC10307832.

Tests used:
Assay in all cases: relative viability (nuclei count vs DMSO), 5 days (fraction); higher = more cells survive
MLN4924 + Crizotinib = compound: NS(=O)(=O)OC[C@@H]1C[C@@H](n2ccc3c(N[C@H]4CCc5ccccc54)ncnc32)C[C@@H]1O [MLN4924] + C[C@@H](Oc1cc(-c2cnn(C3CCNCC3)c2)cnc1N)c1c(Cl)ccc(F)c1Cl [Crizotinib] (partner 1 µM)
Outline: (§1)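 After 5 days of treatment, lung cancer cells in 1536-well plates were fixed and stained in a single step (final 0.05% Triton X-100, 1% formaldehyde, 1 ug/ml Hoechst) and their nuclei counted on 4× images. Treatment had been applied by pin tool the day after seeding as one drug alone or as a fixed anchor-drug dose with five library-drug doses (not always all listed) in √10 steps. Relative viability is the nuclei count of treated wells divided by that of vehicle wells, and values are medians of duplicate plates.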

GSK126 + Olaparib = compound: CC[C@H](C)N1C=C(C2=C(C=C(C=C21)C3=CN=C(C=C3)N4CCNCC4)C(=O)NCC5=C(C=C(NC5=O)C)C)C [GSK126] + O=C(c1cc(Cc2n[nH]c(=O)c3ccccc23)ccc1F)N1CCN(C(=O)C2CC2)CC1 [Olaparib] (partner 8 µM)
Outline: as §1

MLN4924 + Linsitinib = compound: NS(=O)(=O)OC[C@@H]1C[C@@H](n2ccc3c(N[C@H]4CCc5ccccc54)ncnc32)C[C@@H]1O [MLN4924] + C[C@]1(O)C[C@@H](c2nc(-c3ccc4ccc(-c5ccccc5)nc4c3)c3c(N)nccn32)C1 [Linsitinib] (partner 1 µM)
Outline: as §1

Carboplatin + Decitabine = compound: C1CC(C1)(C(=O)O)C(=O)O.[NH2-].[NH2-].[Pt+2] [Carboplatin] + Nc1ncn([C@H]2C[C@H](O)[C@@H](CO)O2)c(=O)n1 [Decitabine] (partner 2 µM)
Outline: as §1

Cell Line	relative viability (MLN4924 + Crizotinib; first compound 0.04 µM)	relative viability (MLN4924 + Crizotinib; first compound 0.1265 µM)	relative viability (MLN4924 + Crizotinib; first compound 0.4 µM)	relative viability (MLN4924 + Crizotinib; first compound 1.265 µM)	relative viability (MLN4924 + Crizotinib; first compound 4 µM)	relative viability (GSK126 + Olaparib; first compound 0.08 µM)	relative viability (GSK126 + Olaparib; first compound 0.253 µM)	relative viability (GSK126 + Olaparib; first compound 0.8 µM)	relative viability (GSK126 + Olaparib; first compound 2.53 µM)	relative viability (GSK126 + Olaparib; first compound 8 µM)	relative viability (MLN4924 + Linsitinib; first compound 0.04 µM)	relative viability (MLN4924 + Linsitinib; first compound 0.1265 µM)	relative viability (MLN4924 + Linsitinib; first compound 0.4 µM)	relative viability (MLN4924 + Linsitinib; first compound 1.265 µM)	relative viability (MLN4924 + Linsitinib; first compound 4 µM)	relative viability (Carboplatin + Decitabine; first compound 0.08 µM)	relative viability (Carboplatin + Decitabine; first compound 0.253 µM)	relative viability (Carboplatin + Decitabine; first compound 0.8 µM)	relative viability (Carboplatin + Decitabine; first compound 2.53 µM)	relative viability (Carboplatin + Decitabine; first compound 8 µM)
LCLC-103H	1.13	1.09	0.713	0.289	0.321	0.837	0.791	0.774	0.792	0.795	1.33	1.21	1.2	0.316	0.355	0.801	0.735	0.747	0.719	0.735
LK-2	0.222	0.319	0.321	0.27	0.236	0.904	0.71	0.727	0.859	0.689	0.497	0.46	0.289	0.198	0.203	0.287	0.33	0.279	0.289	0.335
LOU-NH91	0.706	0.743	0.652	0.489	0.398	0.938	0.942	0.879	0.956	0.887	1.01	1.14	0.961	0.561	0.472	0.873	0.832	0.806	0.792	0.77
LU99A	0.555	0.359	0.351	0.16	0.151	0.245	0.258	0.266	0.243	0.232	0.469	0.332	0.254	0.147	0.177	0.862	0.869	0.864	0.731	0.724
LXF-289	0.605	0.566	0.508	0.205	0.126	1.12	1.11	1.05	1.01	1.02	0.785	0.645	0.417	0.224	0.143	0.395	0.407	0.382	0.358	0.31
NCI-H23	0.579	0.481	0.301	0.122	0.139	0.299	0.361	0.312	0.3	0.263	0.632	0.405	0.203	0.135	0.149	0.377	0.266	0.298	0.291	0.276
NCI-H322M	0.85	0.779	0.834	0.262	0.399	0.818	0.807	0.806	0.829	0.78	0.86	0.908	0.913	0.262	0.328	0.74	0.723	0.711	0.763	0.62
NCI-H358	0.69	0.506	0.285	0.168	0.156	0.705	0.723	0.555	0.613	0.751	0.918	1.06	0.304	0.183	0.181	0.213	0.222	0.201	0.201	0.186
NCI-H441	0.866	0.693	0.361	0.158	0.169	0.612	0.561	0.566	0.539	0.44	0.47	0.374	0.205	0.111	0.159	0.215	0.242	0.211	0.209	0.222
NCI-H460	0.886	0.929	0.689	0.0391	0.0185	0.434	0.397	0.388	0.326	0.29	0.838	0.733	0.113	0.0176	0.0132	0.461	0.476	0.481	0.298	0.149
NCI-H520	0.431	0.491	0.338	0.168	0.151	0.401	0.347	0.311	0.462	0.37	0.587	0.413	0.312	0.239	0.185	0.551	0.545	0.449	0.457	0.438
NCI-H596	0.886	1.1	0.501	0.961	0.758	0.713	0.703	0.702	0.847	0.758	1.2	1.3	0.744	0.853	0.304	1.16	1.13	0.986	0.958	0.629
NCI-H647	0.925	0.665	0.197	0.0313	0.0474	0.742	0.438	0.57	0.714	0.56	0.709	0.499	0.137	0.0815	0.0619	0.45	0.305	0.286	0.292	0.306
NCI-H650	0.676	0.402	0.289	0.135	0.179	0.446	0.373	0.363	0.405	0.389	0.611	0.604	0.266	0.186	0.174	0.308	0.329	0.344	0.328	0.246
NCI-H661	0.735	0.721	0.602	0.462	0.396	0.706	0.74	0.722	0.689	0.705	0.636	0.757	0.576	0.258	0.247	0.526	0.577	0.534	0.521	0.526
